Experimental findings from patent US6787670B1, “Glyoxyl acid amides, method for producing them and their use for controlling harmful organisms” (priority 1999, dated 2004) are described below.

The structures appear in SMILES notation. Where only a bound is given, the exact number is not on record here.

The first assay concerns Phytophthora infestans. As to the kind of experiment: whole plant or invertebrate. Format: in vivo. Conditions: Phytophthora infestans, in Solanum lycopersicum, 72 h, read-out: efficacy in %, tomato plants, protective spray, application rate 50 g/ha, evaluation 3 days after inoculation; 100% = no infection.
`CO/N=C(\C(=O)NCCc1ccc(OC(C)C)c(OC)c1)c1ccc(C)cc1` [Example 107]: the pest or weed control at 50 g/ha was 95%.

In the case of `C=CCOc1ccc(CCNC(=O)/C(=N\OC)c2ccc(Br)cc2)cc1OC` [Example 115], the pest or weed control at 50 g/ha is not below 89%.

For the molecule `CCC(=O)COc1ccc(CCNC(=O)/C(=N\OC)c2ccc3c(c2)CCCC3)cc1OC` [Example 60], the pest or weed control at 50 g/ha was 89%.

With `CCc1ccc(/C(=N/OC)C(=O)NCCc2ccc(OC(C)C)c(OC)c2)cc1` [Example 60], the pest or weed control at 50 g/ha is not below 89%.

Regarding `CCCOc1ccc(CCNC(=O)/C(=N\OC)c2ccc(Br)cc2)cc1OC` [Example 61], the pest or weed control at 50 g/ha was 94%.

For the molecule `CO/N=C(\C(=O)NCCc1ccc(OC(C)C)c(OC)c1)c1ccc2c(c1)CCC2` [Example 115], the pest or weed control at 50 g/ha came out at 94%.

Consider `CCC(C)Oc1ccc(CCNC(=O)/C(=N\OC)c2ccc3c(c2)CCC3)cc1OC` (stereo not shown) [Example 65], for which the pest or weed control at 50 g/ha was 94%.

As for `COCCOc1ccc(CCNC(=O)/C(=N/OC)c2ccc3c(c2)CCCC3)cc1OC` [Example 107], the pest or weed control at 50 g/ha is not below 89%.

Regarding `C=CCOc1ccc(CCNC(=O)/C(=N\OC)c2ccc3c(c2)CCCC3)cc1OC` [Example 57], the pest or weed control at 50 g/ha turned out to be 99%.

On to `CO/N=C(\C(=O)NCCc1ccc(OC(C)C)c(OC)c1)c1ccc2c(c1)CCCC2` [Example 61], for which the pest or weed control at 50 g/ha is not below 89%.

As for `CCC(C)Oc1ccc(CCNC(=O)/C(=N\OC)c2ccc(Cl)cc2)cc1OC` (stereo not shown) [Example 62], the pest or weed control at 50 g/ha came out at 89%.

Staying with this assay, now noted: tomato plants, protective spray, application rate 50 g/ha, evaluation 3 days after inoculation; 100% = no infection.
Molecule `C=CCOc1ccc(CCNC(=O)/C(=N\OC)c2ccc(Br)cc2)cc1OC` [Example 52] registered an efficacy in % of 100%.

As to `CCc1ccc(/C(=N/OC)C(=O)NCCc2ccc(OC(C)C)c(OC)c2)cc1` [Example 113], the efficacy in % came out at 94%.

Molecule `COCCOc1ccc(CCNC(=O)/C(=N/OC)c2ccc3c(c2)CCCC3)cc1OC` [Example 3] yielded an efficacy in % of 92%.

The assay is the same for the next values; noted with them: tomato plants, protective spray, application rate 50 g/ha, evaluation 3 days after inoculation; 100% = no infection; listed as drawing 53.
Consider `CO/N=C(\C(=O)NCCc1ccc(OC(C)C)c(OC)c1)c1ccc2c(c1)CCCC2` [Example 63], for which the efficacy in % was determined as 94%.

The assay is the same for the next values; noted with them: tomato plants, protective spray, application rate 50 g/ha, evaluation 3 days after inoculation; 100% = no infection; listed as drawing 58.
Consider `CO/N=C(\C(=O)NCCc1ccc(OC(C)C)c(OC)c1)c1ccc2c(c1)CCCC2` [Example 116], for which the efficacy in % amounted to 94%.

For the next assay, the system named is Plasmopara viticola. As to the kind of experiment: Plasmopara test (grapevine)/protective. Format: in vivo. Conditions: 144 h, grapevine plants, protective spray, application rate 50 g/ha, evaluation 6 days after inoculation, 100% = no infection, read-out: efficacy in %.
Take `CCC(=O)COc1ccc(CCNC(=O)/C(=N\OC)c2ccc3c(c2)CCCC3)cc1OC` [Example 100]: the pest or weed control at 50 g/ha came to 94%.

On to `CCC(C)Oc1ccc(CCNC(=O)/C(=N\OC)c2ccc(Cl)cc2)cc1OC` (stereo not shown) [Example 111], for which the pest or weed control at 50 g/ha came out at 83%.

Turning to `COCCOc1ccc(CCNC(=O)/C(=N\OC)c2ccc(Cl)cc2)cc1OC` [Example 60], the pest or weed control at 50 g/ha turned out to be 96%.

Consider `CCC(C)Oc1ccc(CCNC(=O)/C(=N\OC)c2ccc3c(c2)CCC3)cc1OC` (stereo not shown) [Example 113], for which the pest or weed control at 50 g/ha is 94%.

On to `CO/N=C(\C(=O)NCCc1ccc(OC(C)C)c(OC)c1)c1ccc2c(c1)CCC2` [Example 116], for which the pest or weed control at 50 g/ha is 100%.

Still in this assay, the particulars now being: 144 h, read-out: efficacy in %.
Turning to `CCOc1cc(CCNC(=O)/C(=N\OC)c2ccc3c(c2)CCCC3)ccc1OC` [Example 52], the pest or weed control at 50 g/ha came to 93%.

Take `COCCOc1ccc(CCNC(=O)/C(=N\OC)c2ccc3c(c2)CCCC3)cc1OC` [Example 65]: the pest or weed control at 50 g/ha stood at 93%.

For the molecule `CCc1ccc(/C(=N/OC)C(=O)NCCc2ccc(OC(C)C)c(OC)c2)cc1` [Example 115], the pest or weed control at 50 g/ha was found to be 87%.

On to `C=CCOc1ccc(CCNC(=O)/C(=N\OC)c2ccc(Br)cc2)cc1OC` [Example 63], for which the pest or weed control at 50 g/ha stood at 99%.

Staying with this assay, now noted: 144 h, read-out: efficacy in %, grapevine plants, protective spray, application rate 50 g/ha, evaluation 6 days after inoculation, 100% = no infection.
As for `C=CCOc1ccc(CCNC(=O)/C(=N\OC)c2ccc(Br)cc2)cc1OC` [Example 115], the pest or weed control at 50 g/ha is not below 83%.

For `CCc1ccc(/C(=N/OC)C(=O)NCCc2ccc(OC(C)C)c(OC)c2)cc1` [Example 60], the pest or weed control at 50 g/ha was not below 83%.

As to `CCOc1cc(CCNC(=O)/C(=N\OC)c2ccc3c(c2)CCCC3)ccc1OC` [Example 100], the pest or weed control at 50 g/ha is not below 83%.

The subject of the next assay is Alternaria solani. As to the kind of experiment: Alternaria test (tomato)/protective. Format: in vivo. Conditions: tomato plants, protective spray, application rate 750 g/ha, evaluation 3 days after inoculation; 100% = no infection.
Description: Alternaria Test (Tomato)/Protective
Solvent: 50 parts by weight of N,N-dimethylformamide
Emulsifier: 1.2 parts by weight of alkylaryl polyglycol ether
One day after the treatment, the plants are inoculated with a spore suspension of Alternaria solani. The plants then stand at 100% rel. atmospheric humidity and a temperature of 20° C.
Evaluation is carried out 3 days after the inoculation.
`CO/N=C(\C(=O)NCCc1ccc(OCC(C)C)c(OC)c1)c1ccc2c(c1)CCCC2` [Example 49] had an efficacy in % of 90%.

Molecule `CCCCOc1ccc(CCNC(=O)/C(=N\OC)c2ccc3c(c2)CCCC3)cc1OC` [Example 48] had an efficacy in % of 95%.

The molecule `CO/N=C(\C(=O)NCCc1ccc(OCC(C)C)c(OC)c1)c1ccc2c(c1)CCCC2` [Example 45] showed an efficacy in % of 95%.
